Assay results published in US20250179059A1 (The Regents of the University of California, priority 2021, published 2025).
Counter-ions that a name gives are not always drawn.

The compounds below were run against T1, human BRD4 bromodomain II (Homo sapiens, UniProt O60885) (assay: Bromodomain binding assay (AlphaScreen), BRD4 BDII). Conditions: AlphaScreen assay, Table C2; read-out: BRD4 BDII IC50.
T1 construct: human BRD4 bromodomain II [based on Genbank NM_058243, residues 349-460]; host or cells: E. coli
Experimental: Bromodomain Binding Assay
The bromodomain binding assay utilizes AlphaScreen technology. Compounds compete with a biotinylated peptide ligand (from histone H4: aa 1-21, K5/K8/K12/K16Ac-biotin) for binding to a hexahistidine (His6)-tagged bromodomain. Peptide binding is detected by fluorescence signal after singlet oxygen energy transfer from peptide-bound AlphaScreen streptavidin-coated donor beads to His6-tagged bromodomain-bound nickel-chelate acceptor beads (PerkinElmer). Briefly, 8 μL 2.5× bromodomain (E. coli expressed, N-terminal His6-tagged human BRD4 bromodomain II [based on Genbank NM_058243, residues 349-460] or N-terminal His6-tagged human BRD4 bromodomain I [residues 44-170]) in reaction buffer (50 mM HEPES [pH 7.5], 100 mM NaCl, 0.05% CHAPS, 0.1% BSA, 1% DMSO) is added to wells of an assay plate (384-well low flange white, flat bottom, polystyrene microplate, Corning #3572; buffer only is added to some wells as a negative control). A compound concentration series (10 concentrations, 3-fold serial dilutions previously prepared in 100% DMSO, or 100% DMSO only negative control) is delivered to the assay plate with an Echo 550 acoustic liquid handler (Labcyte), followed by plate centrifugation and incubation for 30 minutes at room temperature. Then 4 μL 5× biotinylated peptide ligand is added, followed by plate centrifugation and gentle shaking for 30 minutes at room temperature to mix. After this incubation, 4 μL 5× donor beads are added, and the plate is centrifuged, followed by brief gentle shaking to mix. Finally, 4 μL 5× acceptor beads are added, and the plate is centrifuged, followed by gentle shaking for 60 minutes at room temperature in the dark. AlphaScreen signal (excitation/emission: 680 nm/520-620 nm) is detected with an EnSpire multimode plate reader (PerkinElmer). Percentage peptide binding is plotted as a function of concentration, and curve fitting is used to determine competitive compound binding ICsos.

`COc1c(-c2ccc(NC(C)=O)cc2)cccc1-c1cc(N2CCN(C)CC2)no1` [Example 7] and `COc1cc(-c2cccc(-c3cc(N4CCNCC4)no3)c2O)ccc1NC(C)=O` [Example 23, N-(2′-Hydroxy-3-methoxy-3′-(3-(piperazin-1-yl)isoxazol-5-yl)-[1,1′-biphenyl]-4-yl)acetamide 2,2,2-trifluoroacetate] cannot be ordered by IC50: > 100 nM for the first, > 100 nM for the second.

`CC(=O)Nc1ccc(-c2cccc(-c3cc(N4CCNCC4)sn3)c2O)cc1` [Example 8, N-(2′-Hydroxy-3′-(5-(piperazin-1-yl)isothiazol-3-yl)-[1,1′-biphenyl]-4-yl)acetamide] and `CC(=O)N(C)c1ccc(-c2cccc(-c3cc(N4CCNCC4)no3)c2O)cc1` [Example 9, N-(2′-Hydroxy-3′-(3-(piperazin-1-yl)isoxazol-5-yl)-[1,1′-biphenyl]-4-yl)-N-methylacetamide] cannot be ordered by IC50: > 100 nM for the first, > 100 nM for the second.

`CC(=O)Nc1ccc(-c2cccc(-c3ccc(NC(C)=O)cc3)c2O)cc1` [Example 11, N,N′-(2′-hydroxy-[1,1′:3′,1″-terphenyl]-4,4″-diyl)diacetamide] and `CC(=O)Nc1ccc(-c2cccc(-c3ccccc3)c2O)cc1` [Example 12, N-(2′-Hydroxy-[1,1′:3′,1″-terphenyl]-4-yl)acetamide] cannot be ordered by IC50: > 100 nM for the first, > 100 nM for the second.

`CC(=O)Nc1ccc(-c2cccc(-c3cnn(C)c3)c2O)cc1` [Example 13, N-(2′-Hydroxy-3′-(1-methyl-1H-pyrazol-4-yl)-[1,1′-biphenyl]-4-yl)acetamide] and `CC(=O)Nc1ccc(-c2cccc(-c3cnn(C4CCN(C)CC4)c3)c2O)cc1` [Example 17, N-(2′-Hydroxy-3′-(1-(1-methylpiperidin-4-yl)-1H-pyrazol-4-yl)-[1,1′-biphenyl]-4-yl)acetamide] cannot be ordered by IC50: > 100 nM for the first, > 100 nM for the second.

`CC(=O)Nc1ccc(-c2cccc(-c3cnn(-c4ccccc4)c3)c2O)cc1` [Example 14, N-(2′-Hydroxy-3′-(1-phenyl-1H-pyrazol-4-yl)-[1,1′-biphenyl]-4-yl)acetamide] and `CC(=O)Nc1ccc(-c2cccc(-c3cnn(-c4ccc(F)cc4)c3)c2O)cc1` [Example 16, N-(3′-(1-(4-Fluorophenyl)-1H-pyrazol-4-yl)-2′-hydroxy-[1,1′-biphenyl]-4-yl)acetamide] cannot be ordered by IC50: > 100 nM for the first, > 100 nM for the second.

`CC(=O)Nc1ccc(-c2cccc(-c3cnn(C4CCNCC4)c3)c2O)cc1` [Example 15, N-(2′-Hydroxy-3′-(1-(piperidin-4-yl)-1H-pyrazol-4-yl)-[1,1′-biphenyl]-4-yl)acetamide] and `CC(=O)Nc1ccc(-c2cccc(-n3cnc(-c4ccc(F)cc4)c3)c2O)cc1` [Example 18, N-(3′-(4-(4-Fluorophenyl)-1H-imidazol-1-yl)-2′-hydroxy-[1,1′-biphenyl]-4-yl)acetamide] cannot be ordered by IC50: > 100 nM for the first, > 100 nM for the second.

`CCOc1cc(-c2cccc(-c3cc(N4CCNCC4)no3)c2O)ccc1NC(C)=O` [Example 19, N-(3-Ethoxy-2′-hydroxy-3′-(3-(piperazin-1-yl)isoxazol-5-yl)-[1,1′-biphenyl]-4-yl)acetamide 2,2,2-trifluoroacetate] and `CCc1cc(-c2cccc(-c3cc(N4CCNCC4)no3)c2O)ccc1NC(C)=O` [Example 22, N-(3-Ethyl-2′-hydroxy-3′-(3-(piperazin-1-yl)isoxazol-5-yl)-[1,1′-biphenyl]-4-yl)acetamide 2,2,2-trifluoroacetate] cannot be ordered by IC50: > 100 nM for the first, > 100 nM for the second.

Compared with `CC(=O)Nc1ccc(-c2cccc(-c3cc(N4CCNCC4)no3)c2O)cc1OC(C)C` [Example 20, N-(2′-Hydroxy-3-isopropoxy-3′-(3-(piperazin-1-yl)isoxazol-5-yl)-[1,1′-biphenyl]-4-yl)acetamide], `CC(=O)Nc1ccc(-c2cccc(-c3cc(N4CCNCC4)no3)c2O)cc1C` [Example 21, N-(2′-Hydroxy-3-methyl-3′-(3-(piperazin-1-yl)isoxazol-5-yl)-[1,1′-biphenyl]-4-yl)acetamide hydrochloride] is higher in IC50: 10 to 100 nM for the first, > 100 nM for the second. The first is the more potent here.
